Data from ChEMBL document CHEMBL2440076, “New triarylpyrazoles as broad-spectrum anticancer agents: design, synthesis, and biological evaluation” (Eur J Med Chem, 2013).

Columns and labels:
Type in all cases: functional
786-0 = experiment: Growth inhibition of human 786-0 cells assessed as cell growth at 3X10'-7 M after 48 hrs by sulforhodamine B assay; conditions: 786-0, 48 h, read-out: Activity
M14 = experiment: Growth inhibition of human M14 cells assessed as cell growth at 3X10'-7 M after 48 hrs by sulforhodamine B assay; conditions: M14, 48 h, read-out: Activity
T47D = experiment: Growth inhibition of human T47D cells assessed as cell growth at 3X10'-8 M after 48 hrs by sulforhodamine B assay; conditions: read-out: Activity
BT-549 = experiment: Growth inhibition of human BT549 cells assessed as cell growth at 3X10'-8 M after 48 hrs by sulforhodamine B assay; conditions: BT-549, 48 h, read-out: Activity
OVCAR-8 = experiment: Growth inhibition of human OVCAR8 cells assessed as cell growth at 3X10'-8 M after 48 hrs by sulforhodamine B assay; conditions: OVCAR-8, 48 h, read-out: Activity
UACC-257 [1] = experiment: Growth inhibition of human UACC257 cells assessed as cell growth at 3X10'-8 M after 48 hrs by sulforhodamine B assay; conditions: UACC-257, 48 h, read-out: Activity
Malme-3M = experiment: Growth inhibition of human MALME-3M cells assessed as cell growth at 3X10'-8 M after 48 hrs by sulforhodamine B assay; conditions: read-out: Activity
SF-539 = experiment: Growth inhibition of human SF539 cells assessed as cell growth at 3X10'-8 M after 48 hrs by sulforhodamine B assay; conditions: SF-539, 48 h, read-out: Activity
HCT-15 = experiment: Growth inhibition of human HCT15 cells assessed as cell growth at 3X10'-8 M after 48 hrs by sulforhodamine B assay; conditions: HCT-15, 48 h, read-out: Activity
HCT-116 = experiment: Growth inhibition of human HCT116 cells assessed as cell growth at 3X10'-8 M after 48 hrs by sulforhodamine B assay; conditions: HCT-116, 48 h, read-out: Activity
HOP-62 = experiment: Growth inhibition of human HOP62 cells assessed as cell growth at 3X10'-8 M after 48 hrs by sulforhodamine B assay; conditions: HOP-62, 48 h, read-out: Activity
SR [2] = experiment: Growth inhibition of human SR cells assessed as cell growth at 3X10'-8 M after 48 hrs by sulforhodamine B assay; conditions: read-out: Activity
RPMI-8226 = experiment: Growth inhibition of human RPMI8226 cells assessed as cell growth at 3X10'-8 M after 48 hrs by sulforhodamine B assay; conditions: RPMI-8226, 48 h, read-out: Activity
HL-60(TB) [3] = experiment: Growth inhibition of human HL-60(TB) cells assessed as cell growth at 3X10'-8 M after 48 hrs by sulforhodamine B assay; conditions: HL-60, 48 h, read-out: Activity
UO-31 = experiment: Growth inhibition of human UO31 cells assessed as cell growth at 3X10'-9 M after 48 hrs by sulforhodamine B assay; conditions: UO-31, 48 h, read-out: Activity
ACHN = experiment: Growth inhibition of human ACHN cells assessed as cell growth at 3X10'-9 M after 48 hrs by sulforhodamine B assay; conditions: read-out: Activity
OVCAR-5 = experiment: Growth inhibition of human OVCAR5 cells assessed as cell growth at 3X10'-9 M after 48 hrs by sulforhodamine B assay; conditions: OVCAR-5, 48 h, read-out: Activity
SK-MEL-28 [4] = experiment: Growth inhibition of human SK-MEL-28 cells assessed as cell growth at 3X10'-5 M after 48 hrs by sulforhodamine B assay; conditions: SK-MEL-28, 48 h, read-out: Activity
NCI-H23 = experiment: Growth inhibition of human NCI-H23 cells assessed as cell growth at 3X10'-5 M after 48 hrs by sulforhodamine B assay; conditions: NCI-H23, 48 h, read-out: Activity
MDA-MB-468 = experiment: Growth inhibition of human MDA-MB-468 cells assessed as cell growth at 3X10'-6 M after 48 hrs by sulforhodamine B assay; conditions: MDA-MB-468, 48 h, read-out: Activity
SN12C [5] = experiment: Growth inhibition of human SN12C cells assessed as cell growth at 3X10'-6 M after 48 hrs by sulforhodamine B assay; conditions: read-out: Activity
SK-MEL-28 [6] = experiment: Growth inhibition of human SK-MEL-28 cells assessed as cell growth at 3X10'-9 M after 48 hrs by sulforhodamine B assay; conditions: SK-MEL-28, 48 h, read-out: Activity
[7] = Growth inhibition of human HCC2998 cells assessed as cell growth at 3X10'-9 M after 48 hrs by sulforhodamine B assay; conditions: HCC 2998, 48 h, read-out: Activity
NCI-H522 = experiment: Growth inhibition of human NCI-H522 cells assessed as cell growth at 3X10'-9 M after 48 hrs by sulforhodamine B assay; conditions: NCI-H522, 48 h, read-out: Activity
SR [8] = experiment: Growth inhibition of human SR cells assessed as cell growth at 3X10'-9 M after 48 hrs by sulforhodamine B assay; conditions: read-out: Activity
HL-60(TB) [9] = experiment: Growth inhibition of human HL-60(TB) cells assessed as cell growth at 3X10'-9 M after 48 hrs by sulforhodamine B assay; conditions: HL-60, 48 h, read-out: Activity
OVCAR-4 = experiment: Growth inhibition of human OVCAR4 cells assessed as cell growth at 3X10'-6 M after 48 hrs by sulforhodamine B assay; conditions: OVCAR-4, 48 h, read-out: Activity
UACC-257 [10] = experiment: Growth inhibition of human UACC257 cells assessed as cell growth at 3X10'-6 M after 48 hrs by sulforhodamine B assay; conditions: UACC-257, 48 h, read-out: Activity
U-251 = experiment: Growth inhibition of human U251 cells assessed as cell growth at 3X10'-6 M after 48 hrs by sulforhodamine B assay; conditions: U-251, 48 h, read-out: Activity
SF-268 = experiment: Growth inhibition of human SF268 cells assessed as cell growth at 3X10'-6 M after 48 hrs by sulforhodamine B assay; conditions: SF-268, 48 h, read-out: Activity
NCI-H322M = experiment: Growth inhibition of human NCI-H322M cells assessed as cell growth at 3X10'-6 M after 48 hrs by sulforhodamine B assay; conditions: read-out: Activity
MOLT-4 = experiment: Growth inhibition of human MOLT4 cells assessed as cell growth at 3X10'-6 M after 48 hrs by sulforhodamine B assay; conditions: MOLT-4, 48 h, read-out: Activity
TK-10 = experiment: Growth inhibition of human TK10 cells assessed as cell growth at 3X10'-7 M after 48 hrs by sulforhodamine B assay; conditions: TK-10, 48 h, read-out: Activity
SN12C [11] = experiment: Growth inhibition of human SN12C cells assessed as cell growth at 3X10'-7 M after 48 hrs by sulforhodamine B assay; conditions: read-out: Activity
RXF 393 = experiment: Growth inhibition of human RXF393 cells assessed as cell growth at 3X10'-7 M after 48 hrs by sulforhodamine B assay; conditions: RXF 393, 48 h, read-out: Activity

Work on `COc1cc(-c2nn(-c3cccc(NC(=O)c4ccc(Cl)c(C(F)(F)F)c4)c3)cc2-c2ccncc2)ccc1Cl` yielded a growth at 0.3 µM (786-0) of 99%, a growth at 0.3 µM (M14) of 94% and a growth at 0.03 µM (T47D) of 96%. It also gave a growth at 0.03 µM (BT-549) of 96%, a growth at 0.03 µM (OVCAR-8) of 98% and a growth at 0.03 µM (UACC-257 [1]) of 102%. The growth at 0.03 µM (Malme-3M) was 78%, the growth at 0.03 µM (SF-539) was 102% and the growth at 0.03 µM (HCT-15) was 99%. The growth at 0.03 µM (HCT-116) was 101%, the growth at 0.03 µM (HOP-62) was 96% and the growth at 0.03 µM (SR [2]) was 98%. It also gave a growth at 0.03 µM (RPMI-8226) of 100%, a growth at 0.03 µM (HL-60(TB) [3]) of 113% and a growth at 0.003 µM (UO-31) of 82%. For the same compound, the growth at 0.003 µM (ACHN) was 99%, the growth at 0.003 µM (OVCAR-5) was 96% and the growth at 30 µM (SK-MEL-28 [4]) was 29%. For the same compound, the growth at 30 µM (NCI-H23) was 17%, the growth at 3 µM (MDA-MB-468) was 52% and the growth at 3 µM (SN12C [5]) was 68%. It also gave a growth at 0.003 µM (SK-MEL-28 [6]) of 99%, a growth at 0.003 µM [7] of 95% and a growth at 0.003 µM (NCI-H522) of 89%. The growth at 0.003 µM (SR [8]) was 99%, the growth at 0.003 µM (HL-60(TB) [9]) was 93% and the growth at 3 µM (OVCAR-4) was 62%. The growth at 3 µM (UACC-257 [10]) was 60%, the growth at 3 µM (U-251) was 49% and the growth at 3 µM (SF-268) was 56%. For the same compound, the growth at 3 µM (NCI-H322M) was 73%, the growth at 3 µM (MOLT-4) was 57% and the growth at 0.3 µM (TK-10) was 108%. For the same compound, the growth at 0.3 µM (SN12C [11]) was 93% and the growth at 0.3 µM (RXF 393) was 89%.
In the case of `O=C(Nc1cccc(-n2cc(-c3ccncc3)c(-c3ccc(Cl)c(O)c3)n2)c1)Nc1ccc(Cl)c(C(F)(F)F)c1`, the growth at 0.3 µM (786-0) is reported as 96%, the growth at 0.3 µM (M14) is reported as 94% and the growth at 0.03 µM (T47D) is reported as 103%. For the same compound, the growth at 0.03 µM (BT-549) was 106%, the growth at 0.03 µM (OVCAR-8) was 95% and the growth at 0.03 µM (UACC-257 [1]) was 94%. The growth at 0.03 µM (Malme-3M) was 94%, the growth at 0.03 µM (SF-539) was 94% and the growth at 0.03 µM (HCT-15) was 95%. It also gave a growth at 0.03 µM (HCT-116) of 106%, a growth at 0.03 µM (HOP-62) of 100% and a growth at 0.03 µM (SR [2]) of 104%. The growth at 0.03 µM (RPMI-8226) was 89%, the growth at 0.03 µM (HL-60(TB) [3]) was 116% and the growth at 0.003 µM (UO-31) was 94%. For the same compound, the growth at 0.003 µM (ACHN) was 97%, the growth at 0.003 µM (OVCAR-5) was 93% and the growth at 30 µM (SK-MEL-28 [4]) was -87%. For the same compound, the growth at 30 µM (NCI-H23) was -55%, the growth at 3 µM (MDA-MB-468) was -27% and the growth at 3 µM (SN12C [5]) was 15%. For the same compound, the growth at 0.003 µM (SK-MEL-28 [6]) was 103%, the growth at 0.003 µM [7] was 100% and the growth at 0.003 µM (NCI-H522) was 96%. It also gave a growth at 0.003 µM (SR [8]) of 106%, a growth at 0.003 µM (HL-60(TB) [9]) of 116% and a growth at 3 µM (OVCAR-4) of 17%. It also gave a growth at 3 µM (UACC-257 [10]) of -22%, a growth at 3 µM (U-251) of -61% and a growth at 3 µM (SF-268) of 10%. It also gave a growth at 3 µM (NCI-H322M) of 9%, a growth at 3 µM (MOLT-4) of -4% and a growth at 0.3 µM (TK-10) of 101%. The growth at 0.3 µM (SN12C [11]) was 91% and the growth at 0.3 µM (RXF 393) was 69%.
`O=C(Nc1cccc(-n2cc(-c3ccncc3)c(-c3ccc(Cl)c(O)c3)n2)c1)Nc1ccc(Cl)c(Cl)c1` showed a growth at 0.3 µM (786-0) of 103%, a growth at 0.3 µM (M14) of 96% and a growth at 0.03 µM (T47D) of 95%. It also gave a growth at 0.03 µM (BT-549) of 102%, a growth at 0.03 µM (OVCAR-8) of 98% and a growth at 0.03 µM (UACC-257 [1]) of 93%. It also gave a growth at 0.03 µM (Malme-3M) of 89%, a growth at 0.03 µM (SF-539) of 95% and a growth at 0.03 µM (HCT-15) of 103%. For the same compound, the growth at 0.03 µM (HCT-116) was 100%, the growth at 0.03 µM (HOP-62) was 96% and the growth at 0.03 µM (SR [2]) was 98%. The growth at 0.03 µM (RPMI-8226) was 102%, the growth at 0.03 µM (HL-60(TB) [3]) was 101% and the growth at 0.003 µM (UO-31) was 86%. The growth at 0.003 µM (ACHN) was 103%, the growth at 0.003 µM (OVCAR-5) was 96% and the growth at 30 µM (SK-MEL-28 [4]) was -27%. It also gave a growth at 30 µM (NCI-H23) of -1%, a growth at 3 µM (MDA-MB-468) of 2% and a growth at 3 µM (SN12C [5]) of 17%. It also gave a growth at 0.003 µM (SK-MEL-28 [6]) of 102%, a growth at 0.003 µM [7] of 95% and a growth at 0.003 µM (NCI-H522) of 96%. It also gave a growth at 0.003 µM (SR [8]) of 91%, a growth at 0.003 µM (HL-60(TB) [9]) of 90% and a growth at 3 µM (OVCAR-4) of 28%. It also gave a growth at 3 µM (UACC-257 [10]) of -1%, a growth at 3 µM (U-251) of 25% and a growth at 3 µM (SF-268) of 23%. It also gave a growth at 3 µM (NCI-H322M) of 47%, a growth at 3 µM (MOLT-4) of 19% and a growth at 0.3 µM (TK-10) of 112%. The growth at 0.3 µM (SN12C [11]) was 101% and the growth at 0.3 µM (RXF 393) was 83%.
